What was measured:
[1] = system: stage IV metastatic melanoma; conditions: in combination with paclitaxel, relative to patients treated with paclitaxel alone; cited from earlier work
[2] = system: M14 melanoma cells; experiment: Cytotoxicity in confluent M14 cells, cell viability by CCK8 assay; format: cell-based; conditions: Homo sapiens, M14, 48 h
Method: M14 melanoma cells were seeded at 50,000 cells per well of 96-well plate in 100 μl of Dulbecco's minimum essential medium (DMEM) supplemented with 10% fetal bovine serum. Cells were cultured at 37° C. under 5% CO2-95% air. After 16 hours of incubation, the test compound was added to the cell culture. The compound was first diluted in 100% dimethyl sulfoxide (DMSO) at 400-fold of final concentrations actually used in the assay. The DMSO solution was next diluted 20 fold with the culture medium, and then finally added to the assay wells at another 20-fold dilution. The assay medium included the test compound with concentrations as indicated with 0.25% DMSO. Cell viability was measured with a CCK8 assay (as described in the Technical Manual for Cell Counting Kit-8, Product #CK04-11, CK04-13 and CK04-20, Dojindo Molecular Technologies, Inc. MD; Tantular, I. S. et al. Tropical Medicine and International Health, 8(6), 569-574, 2003) in the last 15 min after a 48 h incubation with the test compound. Each bar of the figure expresses average percent inhibition against vehicle (0.25% DMSO) control (n=4). Error bars indicate standard deviation.

CN(NC(=O)CC(=O)NN(C)C(=S)c1ccccc1)C(=S)c1ccccc1 [N-malonyl-bis(N′-methyl-N′-thiobenzoylhydrazide)]
time to progression [1]: increase the time to progression

CN(NC(=O)CC(=O)NN(C)C(=S)c1ccccc1)C(=S)c1ccccc1 [A]
IC50 [2]: > 12.5 µM

— patent publication US9174935B2, “Transition metal complexes of bis[thiohydrazide amide] compounds” (Synta Pharmaceuticals Corp., priority 2008, dated 2015)
